Measured values: patent publication US10662409B2, “Methods of generating neural stem cells” (Trustees of Tufts College, priority 2015, dated 2020)

Experiments:
Format in all cases: cell-based, human
GABA receptors = test: Electrophysiology of 1-week hiNSC cultures, functionality of GABA receptors; conditions: hiNSCs cultured for one week
Description: hiNSCs were grown on poly-L-lysine coated coverslips (Corning) in neurobasal media supplemented with 2% B27 (Invitrogen), 1% Glutamax, and 1% antibiotic-antimycotic for 1-8 weeks. Recordings were performed at 34° C. For whole-cell patch clamp experiments, pipettes contained saline (in mM): 130 K-gluconate, 10 KCl, 0.1 CaCl2, 2 Mg-ATP, 1.1 EGTA, and 10 HEPES, pH 7.4 KOH. Bath saline contained the following (in mM): 140 NaCl, 2.5 KCl, 2.5 CaCl2, 1.2 MgCl2, 10 HEPES, and 11 glucose, pH 7.4 NaOH.
To determine the functionality of GABA receptors, 1-week hiNSC cultures were assessed via known electrophsysiology methods (e.g., voltage ramp) in order to determine the response of neurons resulting from provided hiNSCs both in the presence of muscimol and in its absence.

hiNSCs [1] = test: Differentiation of dissociated hiNSCs with retinoic acid added to basal media (immunostaining); conditions: retinoic acid 10-100 μM
Description: (§1) To encourage spontaneous differentiation, hiNSC colonies were enzymatically removed from MEF feeder layers using TrypLE (Invitrogen), then dissociated as much as possible by manually pipetting. This cell suspension was sometimes further separated into a single cell suspension using a […] cell strainer to remove larger clumps. Dissociated hiNSCs were plated and cultured on multiple substrates including CELLstart (Invitrogen), laminin (Roche) or gelatin in hiNSC basal media without bFGF or in neurobasal media supplemented with 2% B27 (Invitrogen), 1% Glutamax, and 1% antibiotic-antimycotic. hiNSC cells began to show differentiation into BIII-tubulin (TUJ1)-positive immature neurons with visible neurite extensions in as little as 4 days. After two weeks in basal media, hiNSC cells spontaneously differentiated into more mature neuronal and glial subtypes. Adding various amounts of retinoic acid (10-100 μM) caused cells to differentiate into more mature neuronal phenotypes in a shorter amount of time (˜8 days). […] For guided differentiation, Shh (500 ng/ml, Peprotech), FGF8 (500 ng/ml, Peprotech), and RA (R&D) at concentrations between 10-100 μM were used to facilitate neuronal and glial differentiation within shorter culture periods (˜7-8 days). For differentiation studies in undefined media, DMEM supplemented with 10% FBS and 1% antibiotic-antimycotic was used. […]

[2] = tested on: inhibitory GABA receptors; test: Live Fluo-4AM calcium imaging of hiNSC cultures; conditions: two-week cultures; 200 μM picrotoxin just before imaging
Description: Cells plated onto coverslips or on 3D scaffolds were immersed in extracellular solution (NaCl 140 mM, KCl 2.8 mM, CaCl2 2 mM, MgCl2 2 mM, HEPES 10 mM, glucose 10 mM, pH=7.4, adjusted with NaOH). Fluo-4 (Invitrogen) calcium sensitive dye was mixed 1:1 with 20% Pluronic F127 (Invitrogen). Next, Fluo-4 was diluted to a final concentration of 1 μM in the extracellular buffer and pre-warmed to 37° C. The Fluo-4 1 μM solution was applied to cells and incubated at 37° C. for 1 hour. Upon incubation, cells were washed with the extracellular buffer to remove any unreacted dye. Cells were imaged using Olympus MVX10 macroscope (12.6× magnification) and Hamamatsu ORCA-Flash4.0 camera. The images were taken with the following setup: 15 ms exposure, 60 ms frame frequency, 512×512 pixel, 4×4 binning, […] over 3 minutes at room temperature. Some samples were treated with 200 μM picrotoxin (Sigma-Aldrich) just before imaging. The movie was created using ImageJ software (NIH).

hiNSCs [3] = test: Guided differentiation of hiNSCs into neuronal subtypes with growth factors in Neurobasal media (HB9 / TH immunostaining); conditions: added to Neurobasal media; one week in culture; FGF8 500 ng/ml, Shh 500 ng/ml
Description: as §1

NCc1cc(=O)[nH]o1 [muscimol] was tested, and the “membrane potential response of hiNSCs to GABA agonist” value (GABA receptors) was “depolarizing response”.

In the case of CC1=C(/C=C/C(C)=C/C=C/C(C)=C/C(=O)O)C(C)(C)CCC1 [retinoic acid], the “time to differentiate into more mature neuronal phenotypes” value (hiNSCs [1]) is reported as ~8 days.

picrotoxin was tested, and the “spontaneous calcium signaling in response to GABA receptor blocker” value [2] was “significantly activated”.

B1: FGF8: fibroblast growth factor 8 (Peprotech) added to culture media (protein, UniProt P55075 23-233, looked up)
Fibroblast growth factor 8: QEGPGRGPALGRELASLFRAGREPQGVSQQHVREQSLVTDQLSRRLIRTYQLYSRTSGKHVQVLANKRINAMAEDGDPFAKLIVETDTFGSRVRVRGAETGLYICMNKKGKLIAKSNGKGKDCVFTEIVLENNYTALQNAKYEGWYMAFTRKGRPRKGSKTRQHQREVHFMKRLPRGHHTTEQSLRFEFLNYPPFTRSLRGSQRTWAPEPR
B1 was tested, and the “staining of tyrosine hydroxylase (TH, marker of dopaminergic neurons)” value (hiNSCs [3]) was “increase”.
